This data set can be described thus: Photochromic properties of the compound in the (co)polymer matrix under xenon lamp exposure. The format is physicochemical. The settings on record: for color exhibited: color of the photochromic compound; for λmax (nm): same conditions as compound (I): 0.05% by weight in matrix; for T0 (%) / DO induced: same conditions as compound (I); for DO induced: xenon lamp (40.000 lux). As to the method: The matrix is based on a short-chain (meth)acrylate difunctional monomer and a long-chain alkenic difunctional monomer. Used at 0.05% by weight within the matrix (conditioned under 2 mm thickness), the compound has led to the results shown in the Table below.
Compounds C1, C2, C3, other naphthopyrans according to the application WO-A-94 22850, are identified by their developed formula in the Example part of the text. All compounds (II), C1, C2, C3 were tested under the same conditions as those indicated above with reference to compound (I).
The half-time of fading : t1/2, expressed in seconds is specified below for each one of the compounds. This parameter characterizes the kinetics of the return to the initial state (after darkening)(see its exact definition given earlier in the present text with reference to the Table grouping the properties of compound (I)).

Where [1] appears, read: 0.05% by weight within the matrix, 2 mm thickness.
Setting [2] is: optical density after minus before exposure under a xenon lamp (40.000 lux), 0.05% by weight in matrix, 2 mm.
Where [3] appears, read: transmission before exposure, 0.05% by weight in matrix, 2 mm.

As for `COc1ccc(C2(c3ccc(N(C)C)cc3)C=Cc3c(C)cc4c(OC)cc(OC)cc4c3O2)cc1` (centres unmarked) [Compound (I), 2-(p-dimethylaminophenyl)-2-(p-methoxyphenyl)-5-methyl-7,9-dimethoxy-[2H]-naphtho[1,2-b]pyran], the color exhibited result was “violet”. Under setting [1], the “λmax 1” value is reported as 489 nm and the “λmax 2” value was determined as 588 nm. Under setting [2], the “DOinduced** at 489 nm” value is recorded as 0.58 and the “DOinduced** at 588 nm” value is 0.94. Under setting [3], the “T0* at 489 nm” value came out at 85% and the “T0* at 588 nm” value was found to be 86%.
Take `COc1ccc(C2(c3ccccc3)C=Cc3c(cc(N4CCOCC4)c4ccccc34)O2)cc1` (centres unmarked) [Compound (II), 3-(p-methoxyphenyl)-3-phenyl-6-morpholino-3H-naphtho-[2,1-b]pyran]: the color exhibited result is given as “yellow” and the DO induced is on record as 1.65. The “λmax (nm)” value (2 mm) amounted to 439 nm. Also, the “T0 (%)” value (transmission before exposure) was 79%.
For the compound `COc1ccc(C2(c3ccc(OC)cc3)C=Cc3c(cc(N4CCOCC4)c4ccccc34)O2)cc1` [Compound C1, reference compound], the DO induced came to 1.37. Also, the “λmax (nm)” value (2 mm) is listed as 456 nm. Besides, where the note is “transmission before exposure”, the “T0 (%)” value is 74%.
For `COc1ccc(C2(c3ccc(C(F)(F)F)cc3)C=Cc3c(cc(N4CCOCC4)c4ccccc34)O2)cc1` (centres unmarked) [Compound C2, reference compound], in that order: 1.60, 430 nm and 68%.
The corresponding values for `COc1ccc(C2(c3ccccc3)C=Cc3c(cc(N4CCCCC4)c4ccccc34)O2)cc1` (centres unmarked) [Compound C3, reference compound] are 1.77, 430 nm and 79%.

The values above are taken from EP0980535B1, “PHOTOCHROMIC COMPOSITIONS, PHOTOCHROMIC COMPOUNDS (CO)POLYMER MATRICES” (Corning S.A., priority 1997, dated 1998).
